# Results taken from US8916565B2, “Pyrrolopyrazine-spirocyclic piperidine amides as modulators of ion channels” (priority 2011, dated 2014).
# Target: human NaV subtype, like NaV 1.7 (Homo sapiens, UniProt Q15858)
# Assay: E-VIPR optical membrane potential assay with electrical stimulation
# Format: cell-based
# Conditions: active against one or more sodium channels; Table 3 does not name the assay or NaV subtype; read-out: Binned Activity Data (IC50)
# Sequence of human NaV subtype, like NaV 1.7 (Q15858 whole entry): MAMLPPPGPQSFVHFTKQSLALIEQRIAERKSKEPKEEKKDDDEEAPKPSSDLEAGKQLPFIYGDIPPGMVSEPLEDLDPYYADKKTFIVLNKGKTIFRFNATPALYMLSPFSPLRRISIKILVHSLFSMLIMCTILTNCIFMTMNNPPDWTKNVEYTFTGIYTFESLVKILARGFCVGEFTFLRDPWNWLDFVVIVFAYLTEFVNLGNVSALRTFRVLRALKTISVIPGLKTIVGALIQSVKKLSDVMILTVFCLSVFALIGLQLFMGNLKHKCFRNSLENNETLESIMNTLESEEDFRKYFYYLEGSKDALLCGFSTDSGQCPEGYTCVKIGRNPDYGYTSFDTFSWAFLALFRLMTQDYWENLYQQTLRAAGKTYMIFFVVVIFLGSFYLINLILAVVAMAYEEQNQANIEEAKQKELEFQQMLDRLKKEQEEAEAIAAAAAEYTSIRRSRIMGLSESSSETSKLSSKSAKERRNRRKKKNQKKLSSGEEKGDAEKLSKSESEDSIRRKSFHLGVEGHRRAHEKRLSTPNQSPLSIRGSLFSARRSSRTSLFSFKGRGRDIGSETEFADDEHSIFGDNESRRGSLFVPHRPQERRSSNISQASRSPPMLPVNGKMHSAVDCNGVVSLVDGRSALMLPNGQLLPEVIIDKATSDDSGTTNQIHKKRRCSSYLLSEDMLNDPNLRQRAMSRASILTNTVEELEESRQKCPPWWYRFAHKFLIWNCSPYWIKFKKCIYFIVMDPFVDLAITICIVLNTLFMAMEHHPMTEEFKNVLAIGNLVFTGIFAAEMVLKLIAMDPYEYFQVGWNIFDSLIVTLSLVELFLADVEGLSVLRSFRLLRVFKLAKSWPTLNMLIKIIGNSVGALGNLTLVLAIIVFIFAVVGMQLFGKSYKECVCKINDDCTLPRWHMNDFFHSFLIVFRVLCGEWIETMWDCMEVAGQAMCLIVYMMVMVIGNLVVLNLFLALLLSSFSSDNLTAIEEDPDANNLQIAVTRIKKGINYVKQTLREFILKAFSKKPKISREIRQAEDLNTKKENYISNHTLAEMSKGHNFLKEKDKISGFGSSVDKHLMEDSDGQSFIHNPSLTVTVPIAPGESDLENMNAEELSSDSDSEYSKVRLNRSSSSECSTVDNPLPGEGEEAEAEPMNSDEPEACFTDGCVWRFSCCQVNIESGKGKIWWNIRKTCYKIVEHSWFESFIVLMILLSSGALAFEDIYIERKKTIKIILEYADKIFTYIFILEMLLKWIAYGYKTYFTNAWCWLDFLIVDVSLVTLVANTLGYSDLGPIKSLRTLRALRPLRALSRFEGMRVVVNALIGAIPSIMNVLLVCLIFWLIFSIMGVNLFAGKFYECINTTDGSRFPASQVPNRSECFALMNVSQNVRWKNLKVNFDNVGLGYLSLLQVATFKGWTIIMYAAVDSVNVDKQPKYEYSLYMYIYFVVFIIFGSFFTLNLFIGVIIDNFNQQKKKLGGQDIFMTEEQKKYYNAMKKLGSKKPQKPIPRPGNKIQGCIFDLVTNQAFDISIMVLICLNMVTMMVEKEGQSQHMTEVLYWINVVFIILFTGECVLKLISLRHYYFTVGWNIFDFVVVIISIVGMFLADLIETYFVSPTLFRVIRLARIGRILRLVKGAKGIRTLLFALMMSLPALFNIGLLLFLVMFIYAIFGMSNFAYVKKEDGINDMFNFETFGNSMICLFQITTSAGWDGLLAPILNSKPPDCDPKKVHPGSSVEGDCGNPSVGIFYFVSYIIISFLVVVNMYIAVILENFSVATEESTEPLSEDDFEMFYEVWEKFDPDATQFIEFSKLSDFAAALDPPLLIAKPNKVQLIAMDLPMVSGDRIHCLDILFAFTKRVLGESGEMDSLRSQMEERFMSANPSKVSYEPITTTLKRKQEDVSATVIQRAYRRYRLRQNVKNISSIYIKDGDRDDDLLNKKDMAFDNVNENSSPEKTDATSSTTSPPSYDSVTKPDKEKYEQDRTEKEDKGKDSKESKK
row,Compound,IC50 [nM]
1,CC(C)C(O)c1ccc(C(=O)N2CCC3(CC2)c2ccc(C(F)(F)F)n2CCN3C)cc1 (stereo not drawn) [Compound 150],≤ 2000
2,CCCOc1ccc(C(=O)N2CCC3(CC2)c2c(F)cc(C(F)(F)F)n2CCN3C)cc1 [Compound 18],≤ 2000
3,CN1CCn2c(C(F)(F)F)ccc2C12CCN(C(=O)c1ccc(C(C)(C)O)cc1)CC2 [Compound 84],≤ 2000
4,CC(C)Oc1ccc(C(=O)N2CCC3(CC2)c2ccc(C(=O)C(F)(F)F)n2CCN3C)cc1F [Compound 40],≤ 2000
5,CN1CCn2c(Cl)ccc2C12CCN(C(=O)c1ccc(OCc3ccccc3)cc1)CC2 [Compound 68],2000 to 5000
6,CCCCCc1ccc(C(=O)N2CCC3(CC2)c2ccc(C(C)=O)n2CCN3C)cc1 [Compound 92],≤ 2000
7,Cc1cc(C(=O)N2CCC3(CC2)c2c(F)cc(C(F)(F)F)n2CCN3C)ccc1OCCCO [Compound 249],≤ 2000
8,COc1cc(C(=O)N2CC[C@]3(c4ccc(C(F)(F)F)n4CCN3C)[C@H](F)C2)ccc1OC(C)C [Compound 3],> 5000
9,CC(C)Oc1ccc(C(=O)N2CCC3(CC2)c2ccc(Cl)n2CCN3C)cc1F [Compound 25],> 5000
10,COc1cc(C(=O)N2CCC3(CC2)c2ccc(Cl)n2CCN3C)ccc1C(C)(C)C [Compound 209],≤ 2000
11,COc1cc(C(=O)N2CCC3(CC2)NCC(=O)n2c(C(F)(F)F)ccc23)ccc1OC(C)C [Compound 4],> 5000
12,COc1ccc(C(=O)N2CCC3(CC2)NC(C)(C)Cn2c(C(C)=O)ccc23)cc1Cl [Compound 204],> 5000
13,CCCCOc1cc(C(=O)N2CCC3(CC2)c2ccc(C(F)(F)F)n2CCN3C)ccc1OC [Compound 212],≤ 2000
14,COc1ccc(C(=O)N2CCC3(CC2)c2ccc(C(=O)C(F)(F)F)n2C(C)CN3C)cc1C (stereo not drawn) [Compound 164],≤ 2000
15,COc1cc(C(=O)N2CC[C@@]3(c4ccc(C(F)(F)F)n4CCN3C)[C@H](F)C2)ccc1OC(C)C [Compound 88],2000 to 5000
16,CCCCc1ccc(C(=O)N2CCC3(CC2)c2ccc(Cl)n2CCN3C)cc1 [Compound 275],2000 to 5000

row,Compound,IC50 [nM]
1,COc1cc(C(=O)N2CCC3(CC2)c2ccc(Cl)n2CCN3C)ccc1OCC(C)C [Compound 82],≤ 2000
2,CN1CCn2c(C(=O)C(F)(F)F)ccc2C12CCN(C(=O)c1ccc(OCC3CC3)c(F)c1)CC2 [Compound 46],≤ 2000
3,Cc1cc(C(=O)N2CCC3(CC2)NC(C)(C)Cn2c(C(=O)C(F)(F)F)ccc23)ccc1OC(C)C [Compound 131],≤ 2000
4,Cc1cc(C(=O)N2CCC3(CC2)NCCn2c(C(F)(F)F)ccc23)ccc1S(=O)(=O)N(C)C [Compound 265],≤ 2000
5,CCOc1ccc(C(=O)N2CCC3(CC2)c2ccc(C(=O)C(F)(F)F)n2CCN3C)cc1C(F)(F)F [Compound 64],≤ 2000
6,Cc1cc(C(=O)N2CCC3(CC2)c2ccc(C(F)(F)C(F)(F)F)n2CCN3C)ccc1OC(C)C [Compound 211],≤ 2000
7,COc1ccc(C(=O)N2CCC3(CC2)NC(C)(C)Cn2c(C(=O)C(F)(F)F)ccc23)cc1Cl [Compound 129],≤ 2000
8,CC(C)Oc1ccc(C(=O)N2CCC3(CC2)c2ccc(C(=O)C(F)(F)F)n2CCN3C)cc1CO [Compound 160],≤ 2000
9,CN1CCn2c(C(=O)C(F)(F)F)ccc2C12CCN(C(=O)c1ccc(OCC(F)(F)F)cc1)CC2 [Compound 175],≤ 2000
10,CN1CCn2c(C(=O)C3(C)CC3)ccc2C12CCN(C(=O)c1ccc(O)c(Cl)c1)CC2 [Compound 19],≤ 2000
11,CC(C)Oc1ccc(C(=O)N2CCC3(CC2)c2ccc(S(C)(=O)=O)n2CCN3C)cc1Cl [Compound 111],> 5000
12,COc1cc(C(=O)N2CCC3(CC2)c2ccc(C(=O)C(C)(C)C)n2CCN3C)ccc1OC(C)C [Compound 137],≤ 2000
13,CC(C)Oc1ccc(C(=O)N2CC[C@]3(c4ccc(C(F)(F)F)n4CCN3C)[C@H](F)C2)cc1CO [Compound 202],2000 to 5000
14,CNS(=O)(=O)c1ccc(C(=O)N2CCC3(CC2)c2ccc(C(=O)C(F)(F)F)n2CCN3C)cc1C [Compound 194],≤ 2000
15,Cc1cc(C(=O)N2CCC3(CC2)c2ccc(C(=O)C(F)(F)F)n2CCN3C)cnc1OC(C)C [Compound 291],≤ 2000

# Results, then the compound that gave them:
row,IC50 [nM],Compound
1,> 5000,CCNc1ncccc1C(=O)N1CCC2(CC1)c1ccc(C(F)(F)F)n1CCN2C [Compound 465]
2,≤ 2000,COc1cc(C(=O)N2CCC3(CC2)c2ccc(C(C)=O)n2CCN3C)ccc1OCCOC(F)(F)F [Compound 541]
3,2000 to 5000,CN1CCn2c(Cl)ccc2C12CCN(C(=O)c1ccc(Oc3ccccc3)cc1)CC2 [Compound 406]
4,≤ 2000,CC[C@@H](C)Oc1ccc(C(=O)N2CCC3(CC2)NCCn2c(C(F)(F)F)ccc23)cc1OC [Compound 745]
5,≤ 2000,CCOC(=O)N1CCn2c(C(F)(F)F)ccc2C12CCN(C(=O)c1ccc(OC(C)C)c(OC)c1)CC2 [Compound 741]
6,2000 to 5000,CNC(=O)N1CCn2c(C(F)(F)F)ccc2C12CCN(C(=O)c1ccc(OC(C)C)cc1F)CC2 [Compound 474]
7,≤ 2000,CC(C)Oc1ccc(C(=O)N2CCC3(CC2)c2ccc(C(=O)C(C)(C)C)n2CCN3C)cc1F [Compound 619]
8,≤ 2000,CCCOc1ccc(C(=O)N2CCC3(CC2)c2ccc(C(=O)C(F)(F)F)n2CCN3C)cc1OC [Compound 538]
9,≤ 2000,CN1CCn2c(C(=O)C(F)(F)F)ccc2C12CCN(C(=O)c1ccc(S(=O)(=O)N(C)c3nccs3)cc1)CC2 [Compound 752]
10,≤ 2000,COc1cc(C(=O)N2CCC3(CC2)NC(C)Cn2c(C(F)(F)F)ccc23)ccc1OC(C)C (stereo not drawn) [Compound 320]
11,≤ 2000,COc1ccc(C(=O)N2CCC3(CC2)c2ccc(C(=O)C(F)(F)F)n2CCN3C)nc1C [Compound 746]
12,≤ 2000,CC(C)Oc1ccc(C(=O)N2CCC3(CC2)c2ccc(C(=O)C(F)(F)F)n2CCN3C)cc1Cl [Compound 528]
13,≤ 2000,Cc1cc(C(=O)N2CCC3(CC2)c2ccc(Cl)n2CCN3C)ccc1OC(C)C [Compound 710]
14,≤ 2000,COC(=O)N1CCn2c(C(F)(F)F)ccc2C12CCN(C(=O)c1ccc(OC(C)C)c(C)c1)CC2 [Compound 460]
15,2000 to 5000,CC(C)Oc1ccc(C(=O)N2CCC3(CC2)c2ccc(Cl)n2CCN3C)cc1CO [Compound 678]
16,2000 to 5000,CCCOc1ccc(C(=O)N2CCC3(CC2)c2ccc(Cl)n2CCN3C)cc1OC [Compound 698]
17,2000 to 5000,COc1ccc(C(=O)N2CCC3(CC2)c2cc(C(=O)C(F)(F)F)cn2C(C)(C)CN3C)c(F)c1 [Compound 565]
18,≤ 2000,Cc1nc(C(=O)N2CCC3(CC2)c2ccc(C(=O)C(F)(F)F)n2CCN3C)ccc1O [Compound 322]
19,2000 to 5000,CC(=O)c1ccc2n1CCN(C)C21CCN(C(=O)c2ccc(OCC3CC3)c(F)c2)CC1 [Compound 329]
20,≤ 2000,Cc1cc(C(=O)N2CC[C@@]3(c4ccc(C(F)(F)F)n4CCN3C)[C@H](F)C2)ccc1C(C)(C)O [Compound 630]
21,≤ 2000,Cc1cc(C(=O)N2CCC3(CC2)c2ccc(C(F)(F)F)n2CCN3C)ccc1OC(C)C [Compound 580]
22,2000 to 5000,Cc1cc(C(=O)N2CCC3(CC2)c2ccc(C(F)(F)F)n2CCN3CC(N)=O)ccc1OC(C)C [Compound 571]

row,IC50 [nM],Compound
1,≤ 2000,CC[C@@H](C)Oc1ccc(C(=O)N2CCC3(CC2)c2ccc(Cl)n2CCN3C)cc1OC [Compound 294]
2,> 5000,CN1CCn2c(C(=O)C(F)(F)F)ccc2C12CCN(C(=O)c1ccc(F)c(O)c1)CC2 [Compound 720]
3,≤ 2000,COc1cc(C(=O)N2CCC3(CC2)c2ccc(C(F)(F)F)n2CCN3C)cc(F)c1OC(C)C [Compound 544]
4,> 5000,O=C(c1ccccc1-c1ccccc1)N1CCC2(CC1)NCCn1c(C(F)(F)F)ccc12 [Compound 603]
5,≤ 2000,COc1cc(C(=O)N2CCC3(CC2)NC(C)(C)Cn2c(C(=O)C(F)(F)F)ccc23)ccc1COCC(F)(F)F [Compound 467]
6,2000 to 5000,CCC(=O)c1ccc2n1CCN(C)C21CCN(C(=O)c2ccc(OC(C)C)c(OC)c2)CC1 [Compound 607]
7,> 5000,CC(=O)c1ccc2n1CCN(C)C21CCN(C(=O)c2ccc(OC(F)(F)F)cc2)CC1 [Compound 577]
8,2000 to 5000,CN1CCn2c(C(F)(F)F)ccc2C12CCN(C(=O)c1ccnc(N3CCCCC3)c1)CC2 [Compound 581]
9,≤ 2000,CN1CCn2c(C(=O)C3CC3)ccc2C12CCN(C(=O)c1ccc(C(C)(C)O)c(F)c1)CC2 [Compound 368]
10,> 5000,CCc1ccc(C(=O)N2CCC3(CC2)c2ccc(C(=O)C(F)(F)F)n2CCN3C)nc1 [Compound 331]
11,≤ 2000,Cc1cc(C(=O)N2CCC3(CC2)c2ccc(C(F)(F)C(F)(F)F)n2CCN3C)ccc1C(C)(C)O [Compound 647]
12,≤ 2000,Cc1cc(C(=O)N2CCC3(CC2)NCCn2c(C(F)(F)F)ccc23)ccc1OC(C)C [Compound 356]
13,> 5000,Cc1ccc(C(=O)N2CCC3(CC2)c2ccc(C(F)(F)F)n2CCN3C)cc1 [Compound 319]
14,> 5000,CCc1ccc(C(=O)N2CCC3(CC2)c2ccc(C(F)(F)F)n2CCN3C)nc1 [Compound 345]
15,≤ 2000,CC(C)Oc1ccc(C(=O)N2CCC3(CC2)NC(C)(C)Cn2c(C(F)(F)F)ccc23)c(F)c1 [Compound 721]
16,≤ 2000,CCNc1cc(C)nc2c(C(=O)N3CCC4(CC3)c3ccc(C(F)(F)F)n3CCN4C)cnn12 [Compound 737]
17,≤ 2000,CNC(=O)N1CCn2c(C(F)(F)F)ccc2C12CCN(C(=O)c1ccc(OC(C)C)c(Cl)c1)CC2 [Compound 419]
18,> 5000,COc1cc(C(=O)N2CCC3(CC2)c2ccc(C(F)(F)F)n2C[C@@H](C)N3C)ccc1OC(C)C [Compound 677]
19,≤ 2000,COc1ccc(-c2ccc(C(=O)N3CCC4(CC3)c3ccc(C(=O)C(F)(F)F)n3CCN4C)cc2C)cc1 [Compound 728]
20,≤ 2000,Cc1cc(C(=O)N2CCC3(CC2)c2ccc(C(=O)C(F)(F)F)n2C(C)CN3C)ccc1C(C)(C)O (stereo not drawn) [Compound 311]
21,≤ 2000,COc1cc(C(=O)N2CCC3(CC2)c2ccc(C(F)(F)F)n2CCN3C2CC2)ccc1OC(C)C [Compound 690]
22,≤ 2000,CC(C)Oc1ccc(C(=O)N2CCC3(CC2)c2ccc(C(F)(F)F)n2CCN3C)c(F)c1 [Compound 546]
